# Experimental data: patent publication US9115341B2, “Method for expanding hematopoietic stem cells using heterocyclic compound” (Nissan Chemical Industries, Ltd., priority 2007, dated 2015)
# Test system: human cord blood-derived CD34+ cells
# Assay: Expansion of CD34+ cells from human cord blood-derived CD34+ cells
# Type: cell-based
# Conditions: 168 h, 0.3 μg/mL compound, number of CD34+ cells relative to absence of compound, 7 days, StemSpan SFEM with 100 ng/mL SCF, read-out: Expansion efficiency
# Protocol: Commercially available human cord blood-derived CD34^+ cells (Cambrex Bio Science Walkersville) were plated on a 12-well plate (Corning) (from 5000 to 10000 cells/1 ml/well). As the culture medium, StemSpan SFEM (Stemcell Technologies) containing 100 ng/mL SCF (R&D Systems) was used, and Compounds Nos. 1 to 37 dissolved in dimethyl sulfoxide were added in an amount of 0.1% (v/v) to a final concentration of 0.3 or 1 μg/mL.
# After the cells were incubated in liquid culture at 37° C. for 7 days in a CO2 incubator (in an atmosphere containing 5 vol % CO2), the total number of cells was counted by trypan blue assay (Invitrogen) or Flow-Count™ fluorosphere assay (Beckman Coulter). The number of CD34^+ cells was calculated as follows. After the incubation, the cells in the liquid culture was stained with a CD34 antibody (PE, Becton, Dickinson and Company). The stained cells were analyzed with a flow cytometer (Beckman Coulter) to determined the proportion of CD34^+ cells, which was multiplied by the total number of cells to calculate the number of CD34^+ cells.
# The expansion efficiencies in the presence of 0.3 μg/mL or 1 μg/mL of compounds based on the number of CD34^+ cells in the absence of them are shown in Table 2 on a scale of A for expansion efficiencies of 3 or greater, and B for expansion efficiencies of at least 2 and less than 3.
row,SMILES,fold induction at 0.3 µg/mL
1,C/C(=N\NC(=O)c1ccc(C(=O)NCCc2ccccn2)s1)c1csc(-c2ccc(Cl)c(Cl)c2)c1O [Compound 27],2 to 3
2,C/C(=N\NC(=O)c1ccc(C(=O)NCCc2cccnc2)s1)c1csc(-c2ccc(Cl)c(Cl)c2)c1O [Compound 29],≥ 3
3,C/C(=N\NC(=O)c1ccc(C(=O)NCCc2ccncc2)s1)c1csc(-c2ccc(OC(F)(F)F)cc2)c1O [Compound 30],≥ 3
4,C/C(=N\NC(=O)c1ccc(C(=O)NCCc2ccncc2)s1)c1csc(-c2ccc(C(F)(F)F)cc2)c1O [Compound 31],≥ 3
5,C/C(=N\NC(=O)c1ccc(C(=O)NCCc2cccnc2)s1)c1csc(-c2ccc(OC(F)(F)F)cc2)c1O [Compound 32],≥ 3
6,C/C(=N\NC(=O)c1ccc(C(=O)NCCc2cccnc2)s1)c1csc(-c2ccc(C(F)(F)F)cc2)c1O [Compound 33],≥ 3

# Same assay, conditions: 168 h, 1 μg/mL compound, number of CD34+ cells relative to absence of compound, 7 days, StemSpan SFEM with 100 ng/mL SCF, read-out: Expansion efficiency
row,SMILES,fold induction at 1 µg/mL
1,C/C(=N\NC(=S)Nc1ccc(C(=O)O)cc1)c1nn(C)c(-c2ccc(C(F)(F)F)cc2)c1O [Compound 1],≥ 3
2,C/C(=N\NC(=O)c1ccc(C(=O)O)cc1)c1csc(-c2ccc(Cl)c(Cl)c2)c1O [Compound 2],2 to 3
3,C/C(=N\NC(=S)Nc1ccc(C(=O)O)cc1)c1csc(-c2ccc(C(F)(F)F)cc2)c1O [Compound 3],≥ 3
4,C/C(=N\NC(=O)c1ccc(C(=O)O)c([NH2+][O-])c1)c1csc(-c2ccc(C(C)(C)C)cc2)c1O [Compound 4],≥ 3
5,C/C(=N\NC(=O)c1ccc(C(=O)O)c([NH2+][O-])c1)c1csc(-c2ccc(Cl)c(Cl)c2)c1O [Compound 5],2 to 3
6,C/C(=N\NC(=O)c1ccc(C(=O)O)s1)c1csc(-c2ccc(Cl)c(Cl)c2)c1O [Compound 6],2 to 3
7,C/C(=N\NC(=O)c1ccc(C(=O)O)s1)c1csc(-c2ccc(C(F)(F)F)cc2)c1O [Compound 7],≥ 3
8,C/C(=N\NC(=O)c1ccc(C(=O)O)c([NH2+][O-])c1)c1csc(-c2ccc(C(F)(F)F)cc2)c1O [Compound 8],≥ 3
9,C/C(=N\NC(=S)Nc1ccc(C(=O)O)c([N+](=O)[O-])c1)c1csc(-c2ccc(C(C)(C)C)cc2)c1O [Compound 10],≥ 3
10,C/C(=N\NC(=S)Nc1ccc(C(=O)O)c([N+](=O)[O-])c1)c1csc(-c2ccc(Cl)c(Cl)c2)c1O [Compound 11],≥ 3
11,C/C(=N\NC(=S)Nc1ccc(C(=O)O)c([N+](=O)[O-])c1)c1csc(-c2ccc(C(F)(F)F)cc2)c1O [Compound 12],≥ 3
12,C/C(=N\NC(=S)Nc1ccc(C(=O)O)c(Cl)c1)c1nn(C)c(-c2ccc(C(F)(F)F)cc2)c1O [Compound 13],≥ 3
13,C/C(=N\NC(=S)Nc1ccc(C(=O)O)c(Cl)c1)c1csc(-c2ccc(Cl)c(Cl)c2)c1O [Compound 14],≥ 3
14,C/C(=N\NC(=O)c1ccc(C(=O)N2CCCC2)s1)c1csc(-c2ccc(C(F)(F)F)cc2)c1O [Compound 15],≥ 3
15,C/C(=N\NC(=S)Nc1cccc(C(=O)O)c1)c1csc(-c2ccc(Cl)c(Cl)c2)c1O [Compound 16],2 to 3
16,C/C(=N\NC(=S)Nc1cccc(C(=O)O)c1)c1nn(C)c(-c2ccc(C(F)(F)F)cc2)c1O [Compound 18],≥ 3
17,C/C(=N\NC(=O)c1ccc(C(=O)NCCO)s1)c1csc(-c2ccc(C(F)(F)F)cc2)c1O [Compound 19],≥ 3
18,C/C(=N\NC(=S)Nc1cccc(C(=O)O)c1)c1csc(-c2ccc(C(C)(C)C)cc2)c1O [Compound 20],≥ 3
19,C/C(=N\NC(=S)Nc1cccc(C(=O)O)c1)c1csc(-c2ccc(C)c(C)c2)c1O [Compound 21],≥ 3
20,C/C(=N\NC(=S)Nc1ccc(C(=O)O)cc1)c1csc(-c2ccc(C)c(C)c2)c1O [Compound 22],≥ 3
21,C/C(=N\NC(=S)Nc1ccc(S(N)(=O)=O)cc1)c1nn(C)c(-c2ccc(Cl)c(Cl)c2)c1O [Compound 23],2 to 3
22,C/C(=N\NC(=O)c1ccc(C(=O)O)cc1N)c1nn(C)c(-c2ccc(C(F)(F)F)cc2)c1O [Compound 24],≥ 3
23,C/C(=N\NC(=O)c1ccc(C(=O)NCC(=O)O)s1)c1csc(-c2ccc(OC(F)(F)F)cc2)c1O [Compound 25],≥ 3
24,C/C(=N\NC(=O)c1ccc(C(=O)NC(C)C)s1)c1nn(C)c(-c2ccc(Cl)c(Cl)c2)c1O [Compound 26],≥ 3
25,C/C(=N\NC(=O)c1ccc(C(=O)NCCc2ccncc2)s1)c1csc(-c2ccc(Cl)c(Cl)c2)c1O [Compound 28],≥ 3
26,C/C(=N\NC(=O)c1ccc(C(=O)NCCCc2ccncc2)s1)c1csc(-c2ccc(Cl)c(Cl)c2)c1O [Compound 34],≥ 3
27,C/C(=N\NC(=O)c1ccc(C(=O)NCCc2ccnn2C)s1)c1csc(-c2ccc(Cl)c(Cl)c2)c1O [Compound 35],≥ 3
28,C/C(=N\NC(=O)c1ccc(C(=O)NCCCc2ccncc2)s1)c1csc(-c2ccc(C(F)(F)F)cc2)c1O [Compound 36],≥ 3
29,C/C(=N\NC(=O)c1ccc(C(=O)NCc2cc(C)n(C)n2)s1)c1nn(C)c(-c2ccc(C(F)(F)F)cc2)c1O [Compound 37],≥ 3
